Key:
human cyclin D1-CDK4 = human cyclin D1-CDK4 (Homo sapiens, UniProt P11802); assay: FlashPlate kinase assay, cyclin D1-CDK4; format: biochemical; conditions: Rb protein substrate, 1 μM ATP
Method: (§1) To determine inhibition of Cdk4, Cdk2 and Cdk1 activity, kinase assays were conducted using FlashPlate™ assays (NEN™-Life Science Products). FlashPlate assays were performed using recombinant human cyclin B-CDK1, human cyclin E-CDK2 or human cyclin D1-CDK4 complexes. GST-cyclinE (GST-cycE), CDK2, GST-cyclinB (GST-cycB), CDK1, GST-CDK4 and cyclin D1 (cycD1) cDNA clones in baculovirus vectors were provided by Dr. W. Harper at the Baylor College of Medicine, Houston, Tex.
(§2) The expression of the 62Kd protein was under the control of an IPTG inducible promoter in an M15 E. coli strain. Cells were lysed by sonication and purification was carried out by binding lysates at pH 8.0 to a Ni-chelated agarose column pretreated with 1 mM imidazole. The resin was then washed several times with incrementally decreasing pH buffers to pH 6.0, and eluted with 500 mM imidazole. Eluted protein was dialysed against 20 mM HEPES pH 7.5, 30% glycerol, 200 mM NaCl, and 1 mM DTT. Purified Rb fusion protein stocks were quantitated for protein concentration, aliquoted, and stored at −70° C.
(§3) For all three kinase assays reported herein, 96-well FlashPlates were coated with Rb protein at 10 μg/ml, using 100 μl per well. Plates were incubated at 4° C. overnight or at room temperature for 3 hours on a shaker. To control for nonspecific phosphorylation, one row of wells was coated with 100 μl/well coating buffer (20 mM HEPES, 0.2 M NaCl). Plates were then washed twice with wash buffer (0.01% Tween 20 in phosphate-buffered saline). Compounds to be tested (“test compounds”) were added to the wells at 5×final concentration. Reactions were initiated by immediate addition of 40 μl reaction mix (25 mM HEPES, 20 mM MgCl2, 0.002% Tween 20, 2 mM DTT, 1 μM ATP, 4 nM ^33P-ATP) and a sufficient amount of enzyme to give counts that were at least 10-fold above background. Plates were incubated at room temperature on a shaker for 30 minutes. Plates were washed four times with the wash buffer, sealed, and counted on the TopCount scintillation counter (Packard Instrument Co., Downers Grove, Ill.]. The percent inhibition of Rb phosphorylation, which is a measure of the inhibition of CDK activity, was determined according to the following formula: [formula]
(§4) where “test compound” refers to the average counts per minute of the test duplicates, “nonspecific” refers to the average counts per minute when no CyclinD/Cdk4, etc., was added, and “total” refers to the average counts per minute when no compound was added.

human cyclin E-CDK2 = human cyclin E-CDK2 (Homo sapiens, UniProt P24941); assay: FlashPlate kinase assay, cyclin E-CDK2; format: biochemical; conditions: Rb protein substrate, 1 μM ATP
Method: as §1, §2, §3, §4

human cyclin B-CDK1 = human cyclin B-CDK1 (Homo sapiens, UniProt P06493); assay: FlashPlate kinase assay, cyclin B-CDK1; format: biochemical; conditions: Rb protein substrate, 1 μM ATP
Method: as §1, §2, §3, §4

HCT116 = assay: Tetrazolium dye (MTT) proliferation assay; format: cell-based; conditions: Homo sapiens, HCT-116; HCT116 colorectal carcinoma cell line
Method: The cell line used was HCT116, a colorectal carcinoma cell line obtained from the American Type Cell Culture Collection (ATCC;
Rockville, Md.). The cells were grown in McCoy's 5A medium supplemented with 10% FCS and L-glutamine.
Cells were plated at the appropriate seeding density to give logarithmic growth over the course of the assay in a 96-well tissue culture plate. Plates were incubated overnight at 37° C. in a humidified incubator with 5% CO2. The next day, test compounds were serially diluted to four times the final concentration in the appropriate medium containing 1.2% DMSO. One-fourth final volume of each dilution was added in duplicate to the plates containing cells. The same volume of 1.2% DMSO in medium was added to a row of “control wells” such that the final concentration of DMSO in each well was 0.3%. Wells to which no cells were added served as the “blank.” Wells to which no inhibitor was added served as “no inhibitor control.” The plates were) returned to the incubator, and at set time points (determined by their growth curves) plates were analyzed as described below.
3-(4,5-dimethylthiazole-2-yl)-2,5-diphenyl-2H-tetrazolium bromide (thiazolyl blue; MTT; Sigma) was added to each well to yield a final concentration of 1 mg/ml. Plates were returned to the incubator for 2.5-3 hours at 37° C. The MTT-containing medium was removed and the resulting formazan metabolite was solubilized in 100% ethanol with shaking for 15 minutes at room temperature. Absorbance readings were taken in a microtiter plate reader (Dynatech and Molecular Devices plate readers were used interchangeably) at a wavelength of 570 nm with a 650 nm reference. Percent inhibition (% INH) is calculated by subtracting the absorbance of the blank well from all wells, then subtracting the ratio of the average absorbance of each test duplicate (SAVE) by the average of the controls (CAVE) from 1.00. The final number is then multiplied by 100 (% INH=(1.00−SAVE/CAVE)×100).

human cyclin D1-CDK4, sequence (P11802 whole entry): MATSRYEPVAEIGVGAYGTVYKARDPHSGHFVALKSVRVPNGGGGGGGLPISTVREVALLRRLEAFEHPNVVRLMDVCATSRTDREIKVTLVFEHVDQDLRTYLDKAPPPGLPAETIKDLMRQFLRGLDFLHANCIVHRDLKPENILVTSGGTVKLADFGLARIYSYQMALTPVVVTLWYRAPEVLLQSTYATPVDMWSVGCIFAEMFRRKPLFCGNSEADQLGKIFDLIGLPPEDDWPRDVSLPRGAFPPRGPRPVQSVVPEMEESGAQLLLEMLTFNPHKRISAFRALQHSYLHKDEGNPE
human cyclin D1-CDK4, sequence (P24385 whole entry partner): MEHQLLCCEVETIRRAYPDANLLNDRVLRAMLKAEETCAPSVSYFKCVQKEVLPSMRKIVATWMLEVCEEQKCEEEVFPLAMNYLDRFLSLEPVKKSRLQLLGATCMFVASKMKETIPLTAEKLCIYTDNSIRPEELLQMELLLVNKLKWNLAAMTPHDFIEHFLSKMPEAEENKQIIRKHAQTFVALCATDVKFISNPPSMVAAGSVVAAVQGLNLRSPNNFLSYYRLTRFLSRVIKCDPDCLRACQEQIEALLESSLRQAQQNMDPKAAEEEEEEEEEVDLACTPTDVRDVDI
human cyclin B-CDK1, sequence (P06493 whole entry): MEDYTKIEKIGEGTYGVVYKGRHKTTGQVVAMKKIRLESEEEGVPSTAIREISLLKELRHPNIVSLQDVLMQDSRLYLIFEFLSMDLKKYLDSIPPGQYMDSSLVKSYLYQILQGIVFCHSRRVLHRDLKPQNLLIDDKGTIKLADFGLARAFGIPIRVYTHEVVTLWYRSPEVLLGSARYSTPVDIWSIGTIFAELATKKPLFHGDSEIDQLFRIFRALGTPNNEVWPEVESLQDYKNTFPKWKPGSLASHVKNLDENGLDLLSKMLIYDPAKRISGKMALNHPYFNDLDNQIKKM
human cyclin B-CDK1, sequence (P14635 whole entry partner): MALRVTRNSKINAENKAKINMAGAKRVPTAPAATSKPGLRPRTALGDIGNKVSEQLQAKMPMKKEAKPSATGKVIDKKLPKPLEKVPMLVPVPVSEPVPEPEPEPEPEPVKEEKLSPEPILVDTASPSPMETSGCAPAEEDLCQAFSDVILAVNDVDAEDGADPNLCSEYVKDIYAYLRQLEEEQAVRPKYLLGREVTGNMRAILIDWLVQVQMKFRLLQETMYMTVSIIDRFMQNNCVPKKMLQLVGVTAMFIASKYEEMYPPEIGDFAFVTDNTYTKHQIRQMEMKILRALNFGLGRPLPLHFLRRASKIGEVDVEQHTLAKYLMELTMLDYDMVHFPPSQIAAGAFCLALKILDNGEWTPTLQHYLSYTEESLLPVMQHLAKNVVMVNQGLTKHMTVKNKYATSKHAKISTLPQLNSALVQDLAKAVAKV

Row | Compound | IC50 (human cyclin D1-CDK4) [nM] | IC50 (human cyclin E-CDK2) [nM] | IC50 (human cyclin B-CDK1) [nM] | IC50 (HCT116) [nM]
1 | COc1cccc(C(=O)c2sc(Nc3ccc(N4CCN(C(C)C)CC4)cc3)nc2N)c1 [Example 43, [4-Amino-2-[[4-[4-(1-methylethyl)-1-piperazinyl]phenyl]amino]-5-thiazolyl](3-methoxyphenyl)methanone] | 21 | 3400 | 1900 | 1300
2 | CN1CCN(c2ccc(Nc3nc(N)c(C(=O)c4ccc(N5CCOCC5)c([N+](=O)[O-])c4)s3)cc2)CC1 [Example 59, [4-Amino-2-[[4-(4-methyl-1-piperazinyl)phenyl]amino]-5-thiazolyl][3-nitro-4-(4-morpholinyl)phenyl]methanone] | 24 | 4400 | 4300 | 3900
3 | CC1CCCN1c1ccc(C(=O)c2sc(Nc3ccc(N4CCN(C)CC4)cc3)nc2N)cc1[N+](=O)[O-] (racemic) [Example 62, [4-Amino-2-[[4-(4-methyl-1-piperazinyl)phenyl]amino]-5-thiazolyl][3-nitro-4-(2-methyl-1-pyrrolidinyl)phenyl]methanone] | 44 | 5900 | 10000 | 4400
4 | Nc1nc(Nc2ccc(N3CCN(CCO)CC3)cc2)sc1C(=O)c1cccc(F)c1 [Example 51] | 20 | 500 | 900 | 900
5 | COc1ccc(C(=O)c2sc(Nc3ccc(N4CCNCC4)cc3)nc2N)cc1F [Example 56, [4-Amino-2-[[4-(1-piperazinyl)phenyl]amino)-5-thiazolyl](3-fluoro-4-methoxyphenyl)methanone] | 14 | 800 | 1000 | 800
6 | CCN(CC)c1ccc(C(=O)c2sc(Nc3ccc(N4CCN(C(C)C)CC4)cc3)nc2N)cc1 [Example 46, [4-Amino-2-[[4-[4-(1-methylethyl)-1-piperazinyl]phenyl]amino]-5-thiazolyl][4-(diethylamino)phenyl]methanone] | 14 | 5200 | 3600 | 3600
7 | COc1cccc(C(=O)c2sc(Nc3ccc(N4CCN(CCO)CC4)cc3)nc2N)c1 [Example 53, [4-Amino-2-[[4-[4-(2-hydroxyethyl)-1-piperazinyl]phenyl]amino]-5-thiazolyl](3-methoxyphenyl)methanone] | 6 | 1300 | 2300 | 2500
8 | CN1CCN(c2ccc(Nc3nc(N)c(C(=O)c4ccc(N5CCCC5)cc4)s3)cc2)CC1 [Example 26, [4-Amino-2-[[4-(4-methyl-1-piperazinyl)phenyl]amino]-5-thiazolyl][4-(1-pyrrolidinyl)phenyl]methanone] | 59 | 6200 | 9000 | 5600
9 | COc1cc(OC)cc(C(=O)c2sc(Nc3ccc(N4CCN(C(C)C)CC4)cc3)nc2N)c1 [Example 44, [4-Amino-2-[[4-[4-(1-methylethyl)-1-piperazinyl]phenyl]amino]-5-thiazolyl](3,5-dimethoxyphenyl)methanone] | 28 | 11900 | 1800 | 3800
10 | CN1CCN(c2ccc(Nc3nc(N)c(C(=O)c4ccc5c(c4)OCCO5)s3)cc2)CC1 [Example 24, [4-Amino-2-[[4-(4-methyl-1-piperazinyl)phenyl]amino]-5-thiazolyl](2,3-dihydro-1,4-benzodioxin-6-yl)methanone] | 20 | 4300 | 2500 | 3900
11 | CN1CCN(c2ccc(Nc3nc(N)c(C(=O)c4ccc(N5CCOCC5)cc4)s3)cc2)CC1 [Example 28, [4-Amino-2-[[4-(4-methyl-1-piperazinyl)phenyl]amino]-5-thiazolyl][4-(4-morpholinyl)phenyl]methanone] | 17 | 22200 | 9200 | 9500

From patent US6756374B2, “Diaminothiazoles having antiproliferative activity” (Hoffmann-La Roche Inc., priority 2001, dated 2004)
